Experiments:
[1] = tested on: lambsquarter (Chenopodium album); experiment: Preemergence herbicidal activity; format: in vivo; settings: pre-emergent, after 20-22 days; for pest or weed control at 140 g/ha / % Control CHEAL: 140 g ai/ha
Text: (§1) Seeds of the desired test plant species were planted in a soil matrix prepared by mixing a loam soil (43 percent silt, 19 percent clay, and 38 percent sand, with a pH of about 8.1 and an organic matter content of about 1.5 percent) and sand in a 70 to 30 ratio. The soil matrix was contained in plastic pots with a surface area of 113 square centimeters. When required to ensure good germination and healthy plants, a fungicide treatment and/or other chemical or physical treatment was applied. […] Compound requirements are based upon a 12 mL application volume at a rate of 187 L/ha. Formulated compounds were applied to the plant material with an overhead Mandel track sprayer equipped with a […] nozzles calibrated to deliver 187 L/ha over an application area of 0.503 square meters at a spray height of 18 inches (43 cm) above the soil surface. Control plants were sprayed in the same manner with the solvent blank. The treated pots and control pots were placed in a greenhouse maintained with an approximate 15 hour photoperiod and temperatures of about 23-29° C. during the day and 22-28° C. during the night. Nutrients and water were added on a regular basis and supplemental lighting was provided with overhead metal halide 1000-watt lamps as necessary. The water was added by top-irrigation.

[2] = tested on: velvetleaf (Abutilon theophrasti); experiment: Preemergence herbicidal activity; format: in vivo; settings: pre-emergent, after 20-22 days; for pest or weed control at 140 g/ha / % Control ABUTH: 140 g ai/ha
Text: as §1

[3] = tested on: redroot pigweed (Amaranthus retroflexus); experiment: Preemergence herbicidal activity; format: in vivo; settings: pre-emergent, after 20-22 days; for pest or weed control at 140 g/ha / % Control AMARE: 140 g ai/ha
Text: as §1

[4] = tested on: lambsquarter (Chenopodium album); experiment: Postemergence herbicidal activity; format: in vivo; settings: post-emergent, 140 g ai/ha, after 14 days; for pest or weed control at 140 g/ha: Chenopodium album, post-emergence, 336 h, read-out: % Control CHEAL
Outline: (§2)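 Compounds were applied postemergence by track sprayer delivering 187 L/ha, using a mixed organic/aqueous carrier containing crop oil concentrate and surfactant; solvent-blank sprays served as controls. Test plants were at the first to second true leaf stage after 7-21 days' greenhouse growth, were sub-irrigated after treatment, and were evaluated by probit analysis.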

[5] = tested on: velvetleaf (Abutilon theophrasti); experiment: Postemergence herbicidal activity; format: in vivo; settings: post-emergent, 140 g ai/ha, after 14 days; for pest or weed control at 140 g/ha: Abutilon theophrasti, post-emergence, 336 h, read-out: % Control ABUTH
Outline: as §2

[6] = tested on: redroot pigweed (Amaranthus retroflexus); experiment: Postemergence herbicidal activity; format: in vivo; settings: post-emergent, 140 g ai/ha, after 14 days; for pest or weed control at 140 g/ha: Amaranthus retroflexus, post-emergence, 336 h, read-out: % Control AMARE
Outline: as §2

[7] = Chenopodium album, pre-emergence, 480 h, read-out: % Control CHEAL
[8] = Abutilon theophrasti, pre-emergence, 480 h, read-out: % Control ABUTH
[9] = Amaranthus retroflexus, pre-emergence, 480 h, read-out: % Control AMARE

SMILES | melting point | pest or weed control at 140 g/ha [1, 7] | pest or weed control at 140 g/ha [2, 8] | pest or weed control at 140 g/ha [3, 9] | pest or weed control at 140 g/ha [4] | pest or weed control at 140 g/ha [5] | pest or weed control at 140 g/ha [6] | pest or weed control at 280 g/ha ([1]; Chenopodium album, pre-emergence, 480 h, 280 g ai/ha, read-out: % Control CHEAL) | pest or weed control at 280 g/ha ([2]; Abutilon theophrasti, pre-emergence, 480 h, 280 g ai/ha, read-out: % Control ABUTH) | pest or weed control at 280 g/ha ([3]; Amaranthus retroflexus, pre-emergence, 480 h, 280 g ai/ha, read-out: % Control AMARE) | % Control CHEAL [1] | % Control ABUTH [2] | % Control AMARE [3] | % Control CHEAL [4] | % Control ABUTH [5] | % Control AMARE [6]
COCc1c(Cl)ccc(-c2cc(N)c(Cl)c(C(=O)OC)n2)c1F [Compound 3, 4-Amino-3-chloro-6-(4-chloro-2-fluoro-3-methoxymethylphenyl)pyridine-2-carboxylic acid methyl ester] | 116 to 117 °C | 95% | 98% | 100% | 80% | 100% | 100% | – | – | – | – | – | – | – | – | –
COC(=O)c1nc(-c2ccc(Cl)c(OCC(F)F)c2Cl)cc(N)c1Cl [Compound 10, 4-Amino-3-chloro-6-[2,4-dichloro-3-(2,2-difluoroethoxy)phenyl]pyridine-2-carboxylic acid methyl ester] | 113 to 115 °C | – | – | – | 100% | 90% | 100% | 80% | 40% | 50% | – | – | – | – | – | –
COC(=O)c1nc(-c2ccc3c(c2F)OCO3)c(F)c(N)c1Cl [Compound 12, 4-Amino-3-chloro-5-fluoro-6-(2-fluoro-3,4-methylenedioxyphenyl)pyridine-2-carboxylic acid methyl ester] | 151 to 152 °C | 100% | 100% | 100% | 100% | 100% | 100% | – | – | – | – | – | – | – | – | –
COC(=O)c1nc(-c2cc(OC)c(Cl)cc2F)c(F)c(N)c1Cl [Compound 15, 4-Amino-3-chloro-5-fluoro-6-(4-chloro-2-fluoro-5-methoxyphenyl)pyridine-2-carboxylic acid methyl ester] | 168 to 169 °C | 100% | 60% | 100% | 100% | 100% | 100% | – | – | – | – | – | – | – | – | –
COC(=O)c1nc(-c2ccc(Cl)c(C)c2F)cc(N)c1Cl [Compound 49, 4-Amino-3-chloro-6-(4-chloro-2-fluoro-3-methylphenyl)pyridine-2-carboxylic acid methyl ester] | 116 to 118 °C | 99% | 100% | 100% | 90% | 100% | 80% | – | – | – | – | – | – | – | – | –
CCOc1c(Cl)cc(F)c(-c2cc(N)c(Cl)c(C(=O)OC)n2)c1F [Compound 59, 4-Amino-3-chloro-6-(4-chloro-2,6-difluoro-3-ethoxyphenyl)pyridine-2-carboxylic acid, methyl ester] | – | 60% | 90% | 100% | 90% | 100% | 90% | – | – | – | – | – | – | – | – | –
COC(=O)c1nc(-c2ccc(Cl)c(C(F)F)c2Cl)cc(N)c1Cl [Compound 62, 4-Amino-3-chloro-6-(2,4-dichloro-3-difluoromethylphenyl)pyridine-2-carboxylic acid, methyl ester] | – | 100% | 100% | 100% | 100% | 100% | 100% | – | – | – | – | – | – | – | – | –
COC(=O)c1nc(-c2ccc(Cl)c(C(C)F)c2Cl)cc(N)c1Cl (centres unmarked) [Compound 63] | – | – | – | – | – | – | – | – | – | – | 100% | 100% | 100% | 100% | 100% | 100%
CCc1c(Cl)ccc(-c2cc(N)c(Cl)c(C(=O)OC)n2)c1F [Compound 64, 4-Amino-3-chloro-6-(4-chloro-3-ethyl-2-fluorophenyl)pyridine-2-carboxylic acid, methyl ester] | 120 to 122 °C | 100% | 80% | 100% | 100% | 95% | 100% | – | – | – | – | – | – | – | – | –
COC(=O)c1nc(-c2ccc(Cl)c(C(=O)C(F)(F)F)c2F)cc(N)c1Cl [Compound 82, 4-Amino-3-chloro-6-[4-chloro-2-fluoro-3-(2,2,2-trifluoroacetyl)phenyl]pyridine-2-carboxylic acid, methyl ester] | – | 100% | 90% | 100% | 95% | 100% | 100% | – | – | – | – | – | – | – | – | –
COC(=O)c1nc(-c2c(F)cc(C#N)c(OC)c2F)cc(N)c1Cl [Compound 95, 4-amino-3-chloro-6-(4-cyano-2,6-difluoro-3-methoxyphenyl)pyridine-2-carboxylic acid, methyl ester] | – | 90% | 90% | 90% | 90% | 100% | 85% | – | – | – | – | – | – | – | – | –
Nc1cc(-c2ccc(Cl)c(OCC(F)F)c2F)nc(C(=O)O)c1Cl [Compound 96, 4-Amino-3-chloro-6-(4-chloro-2-fluoro-3-(2,2-difluoroethoxy)phenyl)pyridine-2-carboxylic acid] | – | 40% | 20% | 70% | 90% | 50% | 100% | – | – | – | – | – | – | – | – | –
CN(C)c1c(Cl)ccc(-c2cc(N)c(Cl)c(C(=O)O)n2)c1F [Compound 112, 4-Amino-3-chloro-6-(4-chloro-3-dimethyamino-2-fluorophenyl)pyridine-2-carboxylic acid] | – | – | – | – | – | – | – | – | – | – | 100% | 100% | 100% | 100% | 100% | 100%
COCCOc1c(Cl)ccc(-c2cc(N)c(Cl)c(C(=O)O)n2)c1F [Compound 113, 4-Amino-3-chloro-6-(4-chloro-2-fluoro-3-methoxyethoxyphenyl)pyridine-2-carboxylic acid] | 169 to 170 °C (dec.) | 55% | 0% | 0% | – | – | – | – | – | – | – | – | – | – | – | –
COc1cc(-c2nc(C(=O)O)c(Cl)c(N)c2F)c(F)cc1Cl [Compound 122, 4-Amino-3-chloro-6-(4-chloro-2-fluoro-5-methoxyphenyl)-5-fluoropyridine-2-carboxylic acid] | 180 to 181 °C | 100% | 100% | 100% | – | – | – | – | – | – | – | – | – | – | – | –
COc1c(Cl)ccc(-c2nc(C(=O)O)c(Cl)c(N)c2F)c1F [Compound 123, 4-Amino-3-chloro-6-(4-chloro-2-fluoro-3-methoxyphenyl)-5-fluoropyridine-2-carboxylic acid] | – | 100% | 100% | 100% | 100% | 100% | 100% | – | – | – | – | – | – | – | – | –
Nc1cc(-c2ccc(F)c(F)c2F)nc(C(=O)O)c1Cl [Compound 131, 4-Amino-3-chloro-6-(2,3,4-trifluorophenyl)pyridine-2-carboxlic acid] | – | – | – | – | – | – | – | – | – | – | 100% | 90% | 100% | 100% | 100% | 100%

Reference: patent publication US20070179060A1, “6-(Poly-substituted aryl)-4-aminopicolinates and their use as herbicides” (priority 2006, published 2007)
